Where “and” joins values, the source holds several entries; their conditions need not be identical. Equal entries are not always repeated. Calls of active or inactive are those of the source. How the source made its calls: active means viability on the fitted dose curve at most 10% of control; inactive means the rest.
Tested on: NCI-H211 tumor spheroids, viability percent test/control
Experiment: Anticancer human tumor NCI-H211 cell line growth inhibition;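 on IC50: spheroids exposed to agents for seven days before readout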;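 on viability, T/C: spheroids exposed to agents for seven days before readout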
Details: spheroids with HUVEC and MSC; for viability, T/C: stronger effect = lower value
Description: Multicellular complex tumor spheroid response to DNA repair inhibitors in combination with DNA-damaging drugs
This study explores the anticancer activities of DNA-damaging drugs and inhibitors of DNA damage repair, both as single agents and in combinations. Complex tumor spheroids comprised of malignant cells, endothelial cells and mesenchymal stem cells served as an in vitro model for human solid tumors. This model system incorporates physiologically relevant features and patient-derived or established malignant cell lines with clinically relevant genetic alterations from many tumor types. Twenty-six patient-derived or established malignant cell lines were evaluated representing sarcoma, melanoma, small cell lung cancer (SCLC), non-small cell lung cancer (NSCLC), as well as bladder, ovarian and pancreatic cancers. The concentration ranges selected for each drug and investigational agent were based upon clinically achievable concentrations if the clinical Cmax of the agent was known.
Compounds. The drugs and compounds olaparib (NSC753686), talazoparib (NSC767125), berzosertib (NSC777718), elimusertib (NSC800525), nedisertib (NSC802822), VX-984 (NSC792969), AZD-1390 (NSC803789), temozolomide (NSC362856), topotecan (NSC609699), trabectedin (NSC813783), staurosporine (NSC755774), and gemcitabine (NSC613327) were obtained from the National Cancer Institute (NCI) Developmental Therapeutics Program Chemical Repository. The FDA-approved anticancer drug set is available from the Developmental Therapeutics Program at https://dtp.cancer.gov/organization/dscb/obtaining/available_plates.htm. […] The stock solutions were prepared in dimethyl sulfoxide (DMSO, Sigma-Aldrich, St. Louis, MO, cat. D2650) at 400-fold the tested concentration and stored at -70 degrees C. Prior to their use, the stock solutions were diluted in fresh medium and the final DMSO concentration in the assay was 0.25% (v/v). All drugs and investigational agents were tested over a range starting from a high concentration at or near the clinical Cmax and decreasing in half-log increments. If the clinical Cmax for an agent had not been determined, the highest concentration tested was 10 microM.
Cell Lines. The patient-derived cancer cell (PDC) lines: 156681-154-R-J1-PDC, 283228-195-R-J1-PDC, 287954-098-R-J1-PDC, 292921-168-R-J2-PDC, 349418-098-R-PDC, 425362-245-T-J1-PDC, 556581-035-R-J1-PDC, and BL0293-F563-PDC were received from the NCI Patient-Derived Models Repository (PDMR, https://pdmr.cancer.gov). The established cell lines HS-SY-2 (RRID:CVCL_8719), MPNST, and SYO-1 (RRID:CVCL_7146) were obtained from the Sloan Kettering Institute. The alveolar soft parts sarcoma cell line ASPS-1 (RRID:CVCL_S738) was established at the NCI and grown from internal seed stocks. The following established cell lines were purchased from the American Type Culture Collection (ATCC, Manassas, VA): G-401 (ATCC, cat. CRL-1441, RRID:CVCL_0270), SW982 (ATCC, cat. HTB-93, RRID:CVCL_1734), VA-ES-BJ (ATCC, cat. CRL-2138, RRID:CVCL_1785), NCI-H719 (ATCC, cat. CRL-5837, RRID:CVCL_1582), NCI-H196 (ATCC, cat. CRL-5823, RRID:CVCL_1509), NCI-H841 (ATCC, cat. CRL-5845, RRID:CVCL_1595), NCI-H1618 (ATCC, cat. CRL-5879, RRID:CVCL_1480), NCI-H1876 (ATCC, cat. CRL-5902, RRID:CVCL_1503), DMS 114 (ATCC, cat. CRL-2066; RRID:CVCL_1174), NCI-H211 (ATCC, cat. CRL-5824; RRID:CVCL_1529), and SW 1271 (ATCC, cat. CRL-2177, RRID:CVCL_1716). The small cell lung cancer cell line COR-L88 was purchased from Sigma-Aldrich (cat. 92031917-1VL, RRID:CVCL_1141). The non-small cell lung cancer cell lines NCI-H226 (RRID:CVCL_1544) and NCI-H322M (RRID:CVCL_1557) were established at the NCI and grown from internal seed stocks. Pooled donor human umbilical vein endothelial cells (HUVEC, Lonza, cat. CC-2519) and human mesenchymal stem cells (hMSC, Lonza, cat. PT-2501) were purchased from Lonza (Walkersville, MD).
Cell Culture. All cells were maintained in an incubator at 37 degrees C and 5% CO2 with 95% humidity. […]

[1] = compound alone, run of 12/16/2019

Row | SMILES | viability, T/C (compound 0.0316 µM) | viability, T/C (compound 0.1 µM) | viability, T/C (compound 0.316 µM) | viability, T/C (compound 1 µM) | viability, T/C (compound 3.16 µM) | viability, T/C (compound 10 µM) | IC50 (curve of compound) | viability, T/C (compound 0.00949 µM) | viability, T/C (compound 0.03 µM) | viability, T/C (compound 0.0949 µM) | viability, T/C (compound 0.3 µM) | viability, T/C (compound 0.949 µM) | viability, T/C (compound 3 µM) | other results
1 | CC(C)n1c(=O)n(C)c2cnc3cc(F)c(-c4ccc(OCCCN5CCCCC5)nc4)cc3c21 | 91.8% and 79.6% and 91.9% | 62.7% and 60.5% and 86.8% | 77.7% and 54.9% and 93.9% | 76.7% and 57.7% and 85.2% | 66.6% and 43.2% and 68.5% | 23.9% and 14.7% and 17.5% | 4950 nM and 1310 nM and 4790 nM | – | – | – | – | – | – | –
2 | CC1COCCN1c1cc(-c2ccnn2C)c2ccnc(-c3ccn[nH]3)c2n1 (stereo not drawn) | – | 0.66% and 1.94% and 4.83% | 0.63% and 0.89% and 0.78% | 0.57% and 0.81% and 0.58% | 0.43% and 0.84% and 0.58% | 0.61% and 1.42% and 0.85% | < 31.6 nM | – | – | – | – | – | – | –
3 | CC[C@@]1(O)C(=O)OCc2c1cc1n(c2=O)Cc2cc3c(CN(C)C)c(O)ccc3nc2-1 | – | – | – | – | – | – | – | 12.2% [middle of 10 runs] | 1.13% [middle of 10 runs] | 1.05% [middle of 10 runs] | 1.08% [middle of 10 runs] | – | – | IC50 (compound alone, run of 11/07/2019): 4.84 nM [middle of 4 runs]; IC50 [1]: 6.27 nM [middle of 5 runs]
4 | CNCc1ccc(-c2cc(-c3nc(-c4ccc(S(=O)(=O)C(C)C)cc4)cnc3N)on2)cc1 | – | – | – | – | – | – | 22.6 nM and 34.8 nM and 53.7 nM | 66.6% and 86.6% and 97.1% | 44.6% and 56.7% and 86.2% | 9.22% and 5.33% and 14.5% | 1.18% and 1.04% and 0.87% | 0.24% and 0.22% and 0.59% | 0.17% and 0.19% (2×) | –
5 | COc1cc(C)[nH]c(=O)c1CN1CCc2c(Cl)cc(C(OC)C3COC3)c(Cl)c2C1=O (stereo not drawn) | 98.9% and 97.3% and 103% | 92.9% and 105% and 99.4% | 81.8% and 93.7% and 96.8% | 92.6% and 78.5% and 88.5% | 87.9% and 84.4% and 87.8% | 83.7% and 89.1% and 85.7% | > 10000 nM | – | – | – | – | – | – | –
6 | COc1cc2c(cc1O)CCNC21CSC2c3c(OC(C)=O)c(C)c4c(c3C(COC1=O)N1C(O)C3Cc5cc(C)c(OC)c(O)c5C(C21)N3C)OCO4 (stereo not drawn) | – | – | – | – | – | – | – | – | – | – | – | – | – | viability, T/C (compound 94.9 pM): 21.3% [middle of 10 runs]; viability, T/C (compound 0.0003 µM): 0.79% [middle of 8 runs]; viability, T/C (compound 0.000949 µM): 0.7% [middle of 9 runs]; viability, T/C (compound 0.003 µM): 0.13% [middle of 6 runs]; IC50 [1]: 0.0665 nM and 0.0583 nM and 0.0631 nM
7 | COc1ccc([C@@H](O)c2cc(-c3ncnc4cc(N5CCOCC5)ccc34)c(F)cc2Cl)nn1 | 102% and 96.3% and 105% | 100% and 102% and 109% | 95.9% and 93.1% and 104% | 90.3% and 101% | 74.8% and 85% and 96% | 11.4% and 40.7% and 40.8% | 4870 nM and 7850 nM and 8300 nM | – | – | – | – | – | – | outcome (compound 1 µM): inactive
8 | Cc1cc(C)c(CNC(=O)c2cc(-c3ccc(CN4CCOCC4)cc3)cc3c2cnn3C2CCCC2)c(=O)[nH]1 | 106% and 79.2% and 96.2% | 102% (2×) and 89.3% | 102% and 95.7% and 100% | 96.7% and 87.9% and 102% | 91.7% and 82.2% and 104% | 52% and 33.5% and 63.2% | > 10000 nM and 6780 nM | – | – | – | – | – | – | –
9 | Cc1sc2c(c1C)C(c1ccc(Cl)cc1)=NC(CC(=O)Nc1ccc(O)cc1)c1nnc(C)n1-2 (stereo not drawn) | – | – | – | – | – | – | < 9.49 nM and 10.8 nM and 12.7 nM | 22.6% and 55.5% and 64.2% | 3.79% and 7.14% and 8.47% | 1.01% and 1.07% and 0.73% | 0.87% and 0.68% and 0.48% | 0.92% and 0.62% and 0.4% | 0.83% and 0.65% and 0.43% | –
10 | Cn1ncnc1[C@H]1c2n[nH]c(=O)c3cc(F)cc(c23)N[C@@H]1c1ccc(F)cc1 | – | – | – | – | – | – | < 9.49 nM | 1.22% and 3.94% and 1.23% | 1.16% and 3.82% and 0.82% | 1.19% and 4.14% and 0.91% | 1.37% and 3.79% and 0.88% | 1.35% and 4.02% and 0.84% | 1.37% and 3.65% and 1.07% | –
11 | Cn1nnc2c(C(N)=O)ncn2c1=O | – | – | – | 98.3% [middle of 10 runs] | – | 92.8% [middle of 10 runs] | – | – | – | – | – | – | – | –
12 | O=C(c1cc(Cc2n[nH]c(=O)c3ccccc23)ccc1F)N1CCN(C(=O)C2CC2)CC1 | – | – | – | – | – | – | < 94.9 nM and 224 nM and 401 nM | – | – | 36% and 73% and 92.9% | 30.1% and 42.2% and 63.5% | 14.9% and 5.83% and 9.79% | 9.02% and 1.22% and 0.8% | viability, T/C (compound 9.49 µM): 8.37% and 1.02% and 0.69%; viability, T/C (compound 30 µM): 7.89% and 0.93% and 0.73%
13 | [2H]c1nc(C)nc([2H])c1-c1cc(NC[C@@H](C)c2cccc3c(C(=O)NC)ccnc23)ncn1 | 105% and 102% and 99.5% | 103% and 92.2% and 90.7% | 111% and 103% and 77.5% | 102% and 99.2% and 90% | 105% and 107% and 89.8% | 103% (2×) and 97.1% | > 10000 nM | – | – | – | – | – | – | –

Source: PubChem BioAssay AID1845209 (Molecular Pharmacology Branch, DTP, NCI, 2023)
